# Laboratory results: patent US20120202787A1, “Novel Heteroaryl Imidazoles And Heteroaryl Triazoles As Gamma-Secretase Modulators” (Pfizer Inc., priority 2009, published 2012)
# Test system: γ-secretase (production of amyloid beta protein Aβ (1-42))
# Test: Cell-based γ-secretase assay with ELISA readout (Aβ (1-42) production)
# Design: species or system human WT-APP overexpressing CHO cells
# Conditions: Geometric mean of at least 2 determinations; Table 3; read-out: Aβ 42 IC50 (μM)*
# Method: Cell-Based γ-Secretase Assay with ELISA Readout
# The ability of compounds to modulate production of amyloid beta protein Aβ (1-42) was determined using human WT-APP overexpressing CHO cells. Cells were plated at 22,000 cells/100 μL well in 96 well tissue culture treated, clear plates (Falcon) in DMEM/F12 based medium and incubated for 24 hours at 37° C. Compounds for testing were diluted in 100% DMSO to achieve an eleven points, half log, dose response for IC50 determinations. Compounds were added in fresh medium to achieve 1% final DMSO. Appropriate vehicle and inhibitor controls were added to obtain maximum and minimum inhibition values for the assay before the plates were incubated for about 24 hours at 37° C.
# Coating of ELISA assay plates was initiated by addition of 50 μL/well of an in-house Aβ (1-42) specific antibody at (4 μg/mL) in 0.1 M NaHCO3 (pH 9.0) into black 384-well Maxisorp® plates (Nunc) and incubated overnight at 4° C. The capture antibody was then aspirated from the ELISA assay plates and 100 μL/well of Blocking Buffer (Dulbecco's PBS, 1.5% BSA (Sigma A7030)) added. Ambient temperature incubation was allowed to proceed for a minimum of two hours before washing 2×100 μL with Wash Buffer (Dulbecco's PBS, 0.05% Tween 20). Assay Buffer (Dulbecco's PBS, 1.0% BSA (Sigma A7030), 0.05% Tween 20) 20 μL/well was then added.
# After incubation overnight at 37° C., 5% CO2, 40 μL (in duplicate) of experimental conditioned media were transferred into wells of the blocked ELISA plates containing the capture antibody, followed by overnight incubation at 4° C. Cell toxicity was measured in the corresponding cells after removal of the media for the Aβ (1-42) assay by a colorimetric cell proliferation assay (CellTiter 96® AQueous One Solution Cell Proliferation Assay, Promega) according to the manufacturer's instructions.
# After overnight incubation of the ELISA assay plates at 4° C., unbound Aβ peptides were removed thorough (4×100 μL) washes with Wash Buffer. Europium (Eu) labeled (custom labeled, Perkin Elmer) Aβ (1-16) 6e10 Monoclonal Antibody (Covance #SIG-39320 was added, (50 μL /well Eu-6e10 @ 1:5000, 20 uM EDTA) in Assay Buffer. Incubation at ambient temperature for a minimum of 2 hours was followed by (4×100 μL) washes with Wash Buffer, before 50 μL/well of Delfia Enhancement Solution (Perkin Elmer) was added. Following a one hour ambient temperature incubation, the plates were read on an EnVision plate reader (Perkin Elmer) using standard DELFIA TRF settings. Data analysis including inhibitory IC50 determination was performed using nonlinear regression fit analysis (in-house software) and the appropriate plate mean values for the maximum and minimum inhibition controls.
row,SMILES,IC50
1,"COc1nc(C(=O)N2CC(COc3cccc4ccccc34)C2)ccc1-n1cnc(C)c1 [Example 48, 2-methoxy-3-(4-methyl-1H-imidazol-1-yl)-6-({3-[(1-naphthyloxy)methyl]azetidin-1-yl}carbonyl) pyridine]",0.096 µM
2,"COc1nc(C(=O)NC2COc3ccc(Cl)c(F)c32)ccc1-n1cnc(C)c1 (centres unmarked) [Example 49, N-[5-chloro-4-fluoro-2,3-dihydro-1-benzofuran-3-yl]-6-methoxy-5-(4-methyl-1H-imidazol-1-yl)pyridine-2-carboxamide]",0.194 µM
3,"COc1nc(C(=O)NC2COc3cc(C)c(Cl)cc32)ccc1-n1cnc(C)c1 (centres unmarked) [Example 50, N-[5-chloro-6-methyl-2,3-dihydro-1-benzofuran-3-yl]-6-methoxy-5-(4-methyl-1H-imidazol-1-yl)pyridine-2-carboxamide]",0.2 µM
4,"COc1nc(C(=O)NC2COc3ccc(Cl)c(C)c32)ccc1-n1cnc(C)c1 (centres unmarked) [Example 51, N-(5-chloro-4-methyl-2,3-dihydro-1-benzofuran-3-yl)-6-methoxy-5-(4-methyl-1H-imidazol-1-yl)pyridine-2-carboxamide]",0.234 µM
5,"COc1nc(C(=O)NC2COc3c(C)cc(Cl)cc32)ccc1-n1cnc(C)c1 (centres unmarked) [Example 52, N-(5-chloro-7-methyl-2,3-dihydro-1-benzofuran-3-yl)-6-methoxy-5-(4-methyl-1H-imidazol-1-yl)pyridine-2-carboxamide]",0.364 µM
6,"COc1nc(C(=O)N[C@H]2COc3ccc(Cl)cc32)ccc1-n1cnc(C)c1 [Example 53, N-[(3R)-5-chloro-2,3-dihydro-1-benzofuran-3-yl]-6-methoxy-5-(4-methyl-1H-imidazol-1-yl)pyridine-2-carboxamide]",0.373 µM
7,"COc1nc(C(=O)NC2COc3ccc(C(F)(F)F)c(F)c32)ccc1-n1cnc(C)c1 (centres unmarked) [Example 54, N-[4-fluoro-5-(trifluoromethyl)-2,3-dihydro-1-benzofuran-3-yl]-6-methoxy-5-(4-methyl-1H-imidazol-1-yl)pyridine-2-carboxamide]",0.411 µM
8,"COc1nc(C(=O)NC2COc3cc(F)c(Cl)cc32)ccc1-n1cnc(C)c1 (centres unmarked) [Example 55, N-[5-chloro-6-fluoro-2,3-dihydro-1-benzofuran-3-yl]-6-methoxy-5-(4-methyl-1H-imidazol-1-yl)pyridine-2-carboxamide]",0.423 µM
9,"COc1nc(C(=O)NC2COc3ccc(C(F)(F)F)cc32)ccc1-n1cnc(C)c1 (centres unmarked) [Example 56, 6-methoxy-5-(4-methy-1H-imidazol-1-yl)-N-[5-(trifluoromethyl)-2,3-dihydro-1-benzofuran-3-yl]pyridine-2-carboxamide]",0.478 µM

# Same assay, conditions: human WT-APP overexpressing CHO cells; Aβ (1-42) ELISA; about 24 hours at 37° C.; free base or salt; read-out: Aβ 42B IC50 (μM) (Geometric Mean of 2-8 Determinations)
row,SMILES,IC50
1,"COc1nc(C(=O)NCc2ccc(OC(F)(F)F)cc2)ccc1-n1cnc(C)c1 [Example 31, 6-methoxy-5-(4-methyl-1H-imidazol-1-yl)-N-[4-(trifluoromethoxy)benzyl]-pyridine-2-carboxamide]",1.01 µM
2,"COc1nc(C(=O)NC(C)(C)c2ccc(F)cc2)ccc1-n1cnc(C)c1 [Example 32, N-[1-(4-fluorophenyl)-1-methylethyl]-6-methoxy-5-(4-methyl-1H-imidazol-1-yl)pyridine-2-carboxamide]",2.01 µM
3,"COc1nc(C(=O)NCC2CCCC2)ccc1-n1cnc(C)c1 [Example 33, N-(cyclopentylmethyl)-6-methoxy-5-(4-methyl-1H-imidazol-1-yl)pyridine-2-carboxamide]",0.726 µM
4,"Cc1cn(-c2ncc(C(=O)NCC3(c4ccc(Cl)cc4)CC3)cc2Cl)cn1 [Example 34, 5-chloro-N-{[1-(4-chlorophenyl)cyclopropyl]methyl}-6-(4-methyl-1H-imidazol-1-yl)nicotinamide]",1.37 µM
5,"Cc1cn(-c2ncc(C(=O)NCC3(c4ccc(F)cc4)CC3)cc2Cl)cn1 [Example 35, 5-chloro-N-{[1-(4-fluorophenyl)cyclopropyl]-methyl}-6-(4-methyl-1H-imidazol-1-yl)nicotinamide]",5.77 µM
6,"COc1nc(C(=O)N2CC[C@H](Oc3ccccc3C(F)(F)F)C2)ccc1-n1cnc(C)c1 [Example 36, 2-methoxy-3-(4-methyl-1H-imidazol-1-yl)-6-({(3S)-3-[2-(trifluoromethyl)-phenoxy]pyrrolidin-1-yl}carbonyl)pyridine]",0.207 µM
7,"COc1nc(C(=O)N2CC[C@@H](Oc3ccccc3C(F)(F)F)C2)ccc1-n1cnc(C)c1 [Example 37, 2-methoxy-3-(4-methyl-1H-imidazol-1-yl)-6-({(3R)-3-[2-(trifluoromethyl)-phenoxy]pyrrolidin-1-yl}carbonyl)pyridine]",0.285 µM
8,"COc1nc(C(=O)NCc2cc(C)ccc2C)ccc1-n1cnc(C)c1 [Example 38, N-(2,5-dimethylbenzyl)-6-methoxy-5-(4-methyl-1H-imidazol-1-yl)pyridine-2-carboxamide]",0.667 µM
9,"COc1nc(C(=O)N[C@@H]2CCc3ccc(Cl)cc32)ccc1-n1cnc(C)c1 [Example 39, N-[(1R)-6-chloro-2,3-dihydro-1H-inden-1-yl]-6-methoxy-5-(4-methyl-1H-imidazol-1-yl)pyridine-2-carboxamide]",1.34 µM
10,"COc1nc(C(=O)N[C@H]2CCc3ccc(Cl)cc32)ccc1-n1cnc(C)c1 [Example 40, N-[(1S)-6-chloro-2,3-dihydro-1H-inden-1-yl]-6-methoxy-5-(4-methyl-1H-imidazol-1-yl)pyridine-2-carboxamide]",0.259 µM
11,"COc1nc(C(=O)NCc2cccc(Cl)c2C)ccc1-n1cnc(C)c1 [Example 41, N-(3-chloro-2-methylbenzyl)-6-methoxy-5-(4-methyl-1H-imidazol-1-yl)pyridine-2-carboxamide]",0.332 µM
12,"COc1nc(C(=O)NCc2ccc(F)c(C3CC3)c2)ccc1-n1cnc(C)c1 [Example 42, N-(3-cyclopropyl-4-fluorobenzyl)-6-methoxy-5-(4-methyl-1H-imidazol-1-yl)pyridine-2-carboxamide]",0.319 µM
13,"COc1nc(C(=O)NCc2cc(Cl)cc(Cl)c2)ccc1-n1cnc(C)c1 [Example 43, N-(3,5-dichlorobenzyl)-6-methoxy-5-(4-methyl-1H-imidazol-1-yl)pyridine-2-carboxamide]",0.216 µM
14,"COc1nc(C(=O)NCc2ccc(Cl)cc2Cl)ccc1-n1cnc(C)c1 [Example 44, N-(2,4-dichlorobenzyl)-6-methoxy-5-(4-methyl-1H-imidazol-1-yl)pyridine-2-carboxamide]",0.394 µM
15,"COc1cc(C(=O)NCC2(c3ccc(F)cc3)CC2)cnc1-n1cnc(C)c1 [Example 45, N-{[1-(4-fluorophenyl)-cyclopropyl]methyl}-5-methoxy-6-(4-methyl-1H-imidazol-1-yl)nicotinamide]",2.23 µM
16,"COc1cc(C(=O)N2CC[C@@H](Oc3ccccc3C(F)(F)F)C2)cnc1-n1cnc(C)c1 [Example 46, 3-methoxy-2-(4-methyl-1H-imidazol-1-yl)-5-({(3R)-3-[2-(trifluoromethyl)-phenoxy]pyrrolidin-1-yl}carbonyl)pyridine]",2.3 µM
17,"COc1cc(C(=O)N2CC[C@H](Oc3ccccc3C(F)(F)F)C2)cnc1-n1cnc(C)c1 [Example 47, 3-methoxy-2-(4-methyl-1H-imidazol-1-yl)-5-({(3S)-3-[2-(trifluoromethyl)-phenoxy]pyrrolidin-1-yl}carbonyl)pyridine]",3.44 µM
